Laboratory results taken from US12389930B2, “Breast milk-derived Lactobacillus plantarum and use thereof” (Beijing Sanyuan Foods Co., Ltd., priority 2020, dated 2025).
In brackets after ≈: the same amount, converted by molar mass.

System: Lactobacillus plantarum P6
Assay: Drug resistance determination (E-test strips, MIC)
Format: cell-based
Design: key to Susceptibility class of P6 to the antibiotic: S: susceptible; I: intermediate; R: resistance
Settings: for MIC: Lactiplantibacillus plantarum, P6, read-out: Minimum inhibitory concentration MIC; for Susceptibility of P6 to the antibiotic (in words): summary of Table 3
Protocol: The cultured P6 bacteria solution was activated for three generations, and streaked on the MRS solid medium plate, which was then cultured in an anaerobic incubator at 37° C. for 24 hours. A single colony was picked up and dissolved in normal saline to prepare a suspension equivalent to 0.5 […] concentration, which was then coated on an MH solid medium. After drying, ten E-test strips were attached onto the MH solid medium, and cultured at 37° C. for 24-48 hours. The MIC value (minimum inhibitory concentration value) was determined according to the inhibition zone diameter. Escherichia coli ATCC25922 and Staphylococcus aureus ATCC25923 were used as quality-control strains. Quality-control strains were used as control for each batch test, and the MIC of the quality-control strains was required to be within the range specified by CLSI (Clinical and Laboratory Standards […]). An MH solid plate without antibiotics was used as blank control.

[1] = E-test, MH solid medium, 37° C., 24-48 hours

For `CO/N=C(\C(=O)N[C@@H]1C(=O)N2C(C(=O)O)=C(CSc3nc(=O)c(=O)[nH]n3C)CS[C@H]12)c1csc(N)n1` [ceftriaxone], the MIC [1] was 0.125 µg/mL (≈ 0.225 µM) and the “Susceptibility of P6 to the antibiotic (in words)” value (shortened to “Susceptibility of P6”) was “extremely susceptible”.
In the case of `O=C(N[C@H](CO)[C@H](O)c1ccc([N+](=O)[O-])cc1)C(Cl)Cl` [chloramphenicol], the MIC [1] is reported as 16 µg/mL (≈ 49.5 µM) and the “Susceptibility of P6” value is reported as “intermediately susceptible”.
For `CC1(C)S[C@@H]2[C@H](NC(=O)Cc3ccccc3)C(=O)N2[C@H]1C(=O)O` [penicillin G], the “Minimum inhibitory concentration MIC” value [1] was 32 µg/mL (≈ 95.7 µM), the “Susceptibility class of P6 to the antibiotic” value (E-test, class after the slash in the MIC cell) was “R” and the “Susceptibility of P6” value was “resistant”.
With `NCC[C@H](O)C(=O)N[C@@H]1C[C@H](N)[C@@H](O[C@H]2O[C@H](CN)[C@@H](O)[C@H](O)[C@H]2O)[C@H](O)[C@H]1O[C@H]1O[C@H](CO)[C@@H](O)[C@H](N)[C@H]1O` [amikacin] the MIC [1] was 2 µg/mL (≈ 3.42 µM) and the “Susceptibility of P6” value was “extremely susceptible”.
`CC[C@H]1OC(=O)[C@H](C)[C@@H](O[C@H]2C[C@@](C)(OC)[C@@H](O)[C@H](C)O2)[C@H](C)[C@@H](O[C@@H]2O[C@H](C)C[C@H](N(C)C)[C@H]2O)[C@](C)(O)C[C@@H](C)C(=O)[C@H](C)[C@@H](O)[C@]1(C)O` [erythromycin] was tested, and the MIC [1] was 0.38 µg/mL (≈ 0.518 µM) and the “Susceptibility of P6” value was “extremely susceptible”.
With `CC1(C)S[C@@H]2[C@H](NC(=O)[C@H](N)c3ccccc3)C(=O)N2[C@H]1C(=O)O` [ampicillin] the MIC [1] was 1.5 µg/mL (≈ 4.29 µM) and the “Susceptibility of P6” value was “extremely susceptible”.
Work on `CN(C)[C@@H]1C(O)=C(C(N)=O)C(=O)[C@@]2(O)C(O)=C3C(=O)c4c(O)cccc4[C@@](C)(O)[C@H]3C[C@@H]12` [tetracycline] yielded an MIC [1] of 256 µg/mL (≈ 576 µM).
`CCC[C@@H]1C[C@@H](C(=O)N[C@@H]([C@H]2O[C@H](SC)[C@H](O)[C@@H](O)[C@H]2O)[C@H](C)Cl)N(C)C1` [clindamycin] was tested, and the MIC [1] was 0.016 µg/mL (≈ 0.0376 µM).
`CC[C@H]1OC(=O)[C@H](C)[C@@H](O[C@H]2C[C@@](C)(OC)[C@@H](O)[C@H](C)O2)[C@H](C)[C@@H](O[C@@H]2O[C@H](C)C[C@H](N(C)C)[C@H]2O)[C@](C)(O)C[C@@H](C)CN(C)[C@H](C)[C@@H](O)[C@]1(C)O` [azithromycin, Azithromycin] was tested, and the MIC [1] was 0.094 µg/mL (≈ 0.126 µM) and the “Susceptibility of P6” value was “extremely susceptible”.
